Series [1] deals with Trypanosoma cruzi Tulahuen CL2 amastigote stage. Put plainly: In vitro activity against T. cruzi. Type of series: cell-based. To be noted: T. cruzi Tulahuen CL2 amastigotes on MRC-5 cells, 7 days. Here is the method: (§1) Briefly, S. aureus and E. coli were cultured in MHT (Mueller Hinton Broth) and maintained on TSA (Tryptone Soy Agar). T. cruzi, Tulahuen CL2 galactosidase strain (nifurtimox- sensitive), was maintained on MRC-5SV2 (human lung fibroblast) cells in MEM medium, supplemented with 200 mmol L^–1L-glutamine, 16.5 mmol L^–1 NaHCO3, and 5% inactivated fetal calf serum. The T. b. brucei Squib 427 strain (suramine-sensitive) and T. b. rhodesiense STIB-900 strain were maintained in Hirumi’s Modified Iscove’s medium-9 (HMI-9) medium, supplemented with 10% inactivated fetal calf serum. MRC-5SV2 cells were cultured in MEM + Earle’s salts-medium, supplemented with 2 mmol L^–1L-glutamine, 16.5 mmol L^–1 NaHCO3, and 5% inactivated fetal calf serum. All cultures were incubated at 37 °C under an atmosphere of 5% CO2.
The assay was performed at 37 °C under an atmosphere of 5% CO2 in sterile 96-well microtiter plates, each well containing 10 μL of the aqueous compound together with MRC-5 cell/parasite inoculum (190 μL; 4 × 10^3 cells/well + 4 × 10^4 parasites/well). The compounds were tested at 64, 16, 4, 1, and 0.25 μmol L^–1. Parasite growth was compared to that of untreated-infected controls and uninfected controls. After 7 days of incubation, parasite burdens were assessed after adding the substrate CPRG [chlorophenolred β-D-galactopyranoside; 50 μL/well of a solution of CPRG (15.2 mg); and Nonidet (250 μL) in PBS (100 mL)]. The sample was analyzed spectrophotometrically at 540 nm after 4 h. The results were expressed as % reduction in parasite burden compared to control wells, and an IC50 was calculated.

A further series has as its system Staphylococcus aureus. Put plainly: In vitro activity against S. aureus. Type of series: cell-based. The settings on record: resazurin. Here is the method: as §1
(§2) The assays were performed at 37 °C in sterile 96-well microtiter plates, each well containing 10 μL of aqueous compound together with a bacterial/fungal/MRC-5 inoculum (190 μL; 5 × 10^3 CFU/mL). The compounds were tested at 64, 16, 4, 1, and 0.25 μ-mol L^–1. Bacterial/fungal/MRC-5 growth was compared to untreated-control wells (100% growth) and medium-control wells (0% cell growth). After 3 days of incubation, 50 μL of resazurin was added in each well. After 30 min at 37 °C, the fluorescence was measured at λex = 550 nm and λem = 590 nm. The results are expressed as % reduction in cell growth/viability compared to control wells, and IC50 values were determined.
(Resazurin is reduced to fluorescent resorufin, in cell work by metabolically active cells.)

In series [2] the test system is Primary peritoneal mouse macrophages (PMM). The series is described as follows: Cytotoxicity on primary peritoneal mouse macrophages. The series is classed as cell-based.
Another series has as its system Candida albicans. The series is described as follows: In vitro activity against C. albicans. Type of series: cell-based. Here is the method:
as §2

The next series concerns Escherichia coli. Put plainly: In vitro activity against E. coli. Type of series: cell-based. The settings on record: resazurin. The method, then: as §1, §2
The test system of series [3] is Trypanosoma brucei rhodesiense STIB900 strain, drug susceptible, trypomastigote stage. The series is described as follows: In vitro activity against T. b. rhodesiense. The settings on record: T. b. rhodesiense STIB900 trypomastigotes, 3 days, resazurin. The series is classed as cell-based. Here is the method: as §1
(§3) The assay was performed at 37 °C under an atmosphere of 5% CO2 in sterile 96-well microtiter plates, each well containing the aqueous compound (10 μL) dilution together with the parasite suspension [190 μL; 1.5 × 10^3 parasites/well (T. b. brucei) or 4 × 10^3 parasites/well (T. rhodesiense)]. The compounds were tested at 64, 16, 4, 1, and 0.25 μmol L^–1. Parasite growth was compared to untreated-infected controls and uninfected controls. After 3 days of incubation, parasite growth was assessed fluorimetrically after addition of resazurin [50 μL; 50 μg/mL in phosphate buffer] to each well. After 6 h (T. b. rhodesiense) or 24 h (T. b. brucei) at 37 °C, fluorescence was measured (λex 550 nm, λem 590 nm). The results were expressed as % reduction in parasite growth/viability compared to control wells, and an IC50 was calculated.

Series [4] relates to Leishmania infantum (intracellular amastigotes). The series is described as follows: In vitro activity against L. infantum. Type of series: cell-based.
In series [5] the test system is Trypanosoma brucei brucei Squib-427 strain, suramin-sensitive, trypomastigote stage. The series is described as follows: In vitro activity against T. b. brucei. Type of series: cell-based. The settings on record: T. b. brucei Squib-427 trypomastigotes, 3 days, resazurin. The method, then:
as §1, §3

For another series, the system named is Aspergillus fumigatus. Put plainly: In vitro activity against A. fumigatus. Type of series: cell-based. Here is the method:
as §2

In series [6] the test system is MRC-5 human fetal lung fibroblasts. The series is described as follows: Cytotoxicity on MRC-5 cells. Type of series: cell-based. The settings on record: MRC-5 human fetal lung fibroblasts cytotoxicity. The method, then:
as §2, with “Briefly, S. aureus and E. coli were cultured in MHT (Mueller Hinton Broth) and maintained on TSA (Tryptone Soy Agar). […] The T. b. brucei Squib 427 strain (suramine-sensitive) and T. b. rhodesiense STIB-900 strain were maintained in Hirumi’s Modified Iscove’s medium-9 (HMI-9) medium, supplemented with 10% inactivated fetal calf serum. […] All cultures were incubated at 37 °C under an atmosphere of 5% CO2. The assays” for “The assays”

A short description of series [7]: Sequestering ability of MNZ (pL0.5) toward Cu2+. The series is classed as physicochemical. To be noted: toward Cu^2+, t = 37 °C, I = 0.15 mol L^–1, pH = 7.4. The text has this:
(§4) The tendency of a ligand to complex a free metal cation in solution to form metal–ligand species is expressed as the sequestering ability. To describe the sequestering ability of a ligand toward a certain metal cation, however, the mere knowledge of formation constants is not enough as it is necessary to consider all the possible interactions that both ligand and metal cation may have with all the species present in solution. In order to define it quantitatively, the empirical parameter pL0.5 was introduced, which represents the cologarithm of the ligand concentration necessary to sequester 50% of the metal cation in traces.[34],[35] The calculation is based on the following Boltzmann-type sigmoidal equation: [drawing 33] 3 where χ is the sum of molar fractions of the different complex species and pL is the cologarithm of the total ligand concentration.
(§5) A comparison between the sequestering ability of MNZ toward Zn^2, Cu^2+, and Ca^2+ (one of the main metal cations present in human body and previously studied in our recent work[30]) was evaluated under physiological conditions.

Series [8] in a line: Cytotoxicity on primary peritoneal mouse macrophages. Type of series: cell-based. To be noted: primary peritoneal mouse macrophages (PMM).
A short description of series [9]: Sequestering ability of MNZ (pL0.5) toward Zn2+. To be noted: toward Zn^2+, t = 37 °C, I = 0.15 mol L^–1, pH = 7.4. The series is classed as physicochemical.
Description: as §4, §5

Series [10] can be described thus: Cytotoxicity on MRC-5 cells. Type of series: cell-based. The settings on record: MRC-5 SV2 human fetal lung fibroblasts; MRC-5 human fetal lung fibroblasts cytotoxicity. Here is the method: as §2, with “Briefly, S. aureus and E. coli were cultured in MHT (Mueller Hinton Broth) and maintained on TSA (Tryptone Soy Agar). […] The T. b. brucei Squib 427 strain (suramine-sensitive) and T. b. rhodesiense STIB-900 strain were maintained in Hirumi’s Modified Iscove’s medium-9 (HMI-9) medium, supplemented with 10% inactivated fetal calf serum. […] All cultures were incubated at 37 °C under an atmosphere of 5% CO2. The assays” for “The assays”

Series [11] is described as follows: Sequestering ability of MNZ (pL0.5) toward Ca2+. The series is classed as physicochemical. The settings on record: toward Ca^2+, t = 37 °C, I = 0.15 mol L^–1, pH = 7.4.
Description: as §4, §5

Where [12] appears, read: Trypanosoma cruzi, MRC5, 168 h, read-out: IC50.
Where [13] appears, read: Staphylococcus aureus, read-out: IC50.
The mark [14] stands for this setting: Escherichia coli, read-out: IC50.
Where [15] appears, read: Candida albicans, read-out: IC50.
Where [16] appears, read: Trypanosoma brucei, 72 h, read-out: IC50.
[17] abbreviates: Leishmania infantum, read-out: IC50.

Converted amounts (≈) assume the structure as drawn. Where two headings read alike, the source gives them in different places.

The term IC50 denotes the concentration that inhibits the measured activity by half. By CC50 is commonly meant the concentration at which the toxic effect on the cells reaches its halfway point. A lower CC50 goes with harm at low concentration.

In the case of `O=C(Cn1ccnc1[N+](=O)[O-])NCc1ccccc1` [Benznidazol], the IC50 in series [1] (setting [12]) amounted to 0.43 µg/mL (≈ 1.65 µM).
In the case of `[Cl][Cu][Cl]` [Cu^2+], the IC50 was more than 2.42 µg/mL with Staphylococcus aureus; more than 2.42 µg/mL in the series on Candida albicans; more than 2.42 µg/mL in the series with Escherichia coli; 0.94 µg/mL in series [3]; more than 2.42 µg/mL in series [4]; 0.75 µg/mL in [5]. Besides, the half-inhibitory concentration (IC50) (in the series with Aspergillus fumigatus; in series [1]) was more than 2.42 µg/mL in each case. The CC50 in series [2] and in series [6] was more than 2.42 µg/mL throughout.
`C[C@H]1c2cccc(O)c2C(=O)C2=C(O)[C@]3(O)C(=O)C(C(N)=O)=C(O)[C@@H](N(C)C)[C@@H]3[C@@H](O)[C@@H]21` [Doxycycline]: the IC50 with Staphylococcus aureus (setting [13]) was 0.08 µg/mL (≈ 0.18 µM); in the series with Escherichia coli (setting [14]), 0.64 µg/mL (≈ 1.44 µM).
For the compound `Nc1[nH]c(=O)ncc1F` [Flucytosine], the half-maximal inhibitory concentration (IC50) in the series with Candida albicans (setting [15]) turned out to be 0.51 µg/mL (≈ 3.95 µM).
Consider `Cc1ncc([N+](=O)[O-])n1CCO` [MNZ(L), 2-methyl-5-nitro-1H-imidazole-1-ethanol], for which the pL0.5 in [7] is on record as 4.3; in [9], 3.1; in [11], 1.9. In addition, the half-inhibitory concentration (IC50) (in the series on Staphylococcus aureus (setting [13]); with Candida albicans (setting [15]); in the series on Escherichia coli (setting [14]); in [3] (setting [16]); in [4] (setting [17]); in [5] (setting [16])) was more than 5.64 µg/mL each time. In addition, the IC50 in the series on Aspergillus fumigatus (Aspergillus fumigatus, read-out: IC50) was more than 5.64 µg/mL; in series [1] (setting [12]), more than 5.64 µg/mL. For the same compound, the CC50 in [8] is more than 5.64 µg/mL. The compound also displayed a 50% cytotoxic concentration (CC50) at 3 days in series [10] of more than 5.64 µg/mL.
`CCCCCCCCCCCCCCCCOP(=O)([O-])OCC[N+](C)(C)C` [Miltefosine]: the 50% inhibitory concentration (IC50) in [4] (setting [17]) stood at 2.05 µg/mL (≈ 5.03 µM).
On to `Cc1ccc(C(=O)Nc2ccc(S(=O)(=O)O)c3cc(S(=O)(=O)O)cc(S(=O)(=O)O)c23)cc1NC(=O)c1cccc(NC(=O)Nc2cccc(C(=O)Nc3cc(C(=O)Nc4ccc(S(=O)(=O)O)c5cc(S(=O)(=O)O)cc(S(=O)(=O)O)c45)ccc3C)c2)c1` [Suramine], for which the results for the half-inhibitory concentration (IC50) in series [3] (setting [16]) and in series [5] (setting [16]) were 0.07 µg/mL (≈ 0.054 µM) and 0.03 µg/mL (≈ 0.0231 µM), respectively.
On to `[Cl-].[Cl-].[Zn+2]` [Zn^2+], for which the IC50 (with Staphylococcus aureus; in the series on Candida albicans; with Escherichia coli; in series [3]; in series [4]; in series [5]) was more than 1.79 µg/mL each time. Moreover, the concentration for half-maximal inhibition (IC50) (with Aspergillus fumigatus; in series [1]) was more than 1.79 µg/mL each time. In addition, the CC50 in series [2] and in series [6] was more than 1.79 µg/mL each time.

(Values after paper PMC11223215, “Metronidazole Interaction with Cu^2+ and Zn^2+: Speciation Study in Aqueous Solution and Biological Activity Evaluation” (ACS Omega, 2024).)
